The target of the assay is T1, ecdysteroid receptor complex in Drosophila Kc cell cytosolic extract (Drosophila melanogaster, UniProt P34021).
T1 construct: The supernatant, containing the cytosolic protein extract; endogenous in cells; host or cells: Drosophila Kc167 cells, cytosolic extract
T1 sequence (P34021 1-878): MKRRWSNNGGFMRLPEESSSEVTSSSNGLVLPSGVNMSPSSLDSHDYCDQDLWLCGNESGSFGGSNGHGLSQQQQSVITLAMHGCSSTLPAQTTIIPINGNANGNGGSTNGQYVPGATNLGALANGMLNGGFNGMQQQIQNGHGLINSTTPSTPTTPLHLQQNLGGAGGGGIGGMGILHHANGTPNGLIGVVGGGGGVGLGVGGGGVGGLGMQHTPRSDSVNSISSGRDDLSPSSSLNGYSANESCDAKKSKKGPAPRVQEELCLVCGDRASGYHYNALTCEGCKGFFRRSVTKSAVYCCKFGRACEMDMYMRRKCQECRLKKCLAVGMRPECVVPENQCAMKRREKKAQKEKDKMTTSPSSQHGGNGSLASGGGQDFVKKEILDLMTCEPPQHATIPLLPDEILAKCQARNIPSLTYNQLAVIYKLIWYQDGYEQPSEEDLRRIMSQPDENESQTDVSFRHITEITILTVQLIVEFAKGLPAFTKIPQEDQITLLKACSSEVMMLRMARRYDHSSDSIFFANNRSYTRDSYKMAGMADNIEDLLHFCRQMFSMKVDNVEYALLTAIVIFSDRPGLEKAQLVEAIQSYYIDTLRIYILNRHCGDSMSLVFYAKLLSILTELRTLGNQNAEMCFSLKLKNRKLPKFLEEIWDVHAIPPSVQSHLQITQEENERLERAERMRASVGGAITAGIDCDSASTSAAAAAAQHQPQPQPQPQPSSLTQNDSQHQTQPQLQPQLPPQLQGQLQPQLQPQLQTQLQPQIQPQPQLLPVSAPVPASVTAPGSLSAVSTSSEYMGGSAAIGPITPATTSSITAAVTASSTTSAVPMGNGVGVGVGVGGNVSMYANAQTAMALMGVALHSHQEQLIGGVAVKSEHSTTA
T1 sequence (P20153 1-508 partner): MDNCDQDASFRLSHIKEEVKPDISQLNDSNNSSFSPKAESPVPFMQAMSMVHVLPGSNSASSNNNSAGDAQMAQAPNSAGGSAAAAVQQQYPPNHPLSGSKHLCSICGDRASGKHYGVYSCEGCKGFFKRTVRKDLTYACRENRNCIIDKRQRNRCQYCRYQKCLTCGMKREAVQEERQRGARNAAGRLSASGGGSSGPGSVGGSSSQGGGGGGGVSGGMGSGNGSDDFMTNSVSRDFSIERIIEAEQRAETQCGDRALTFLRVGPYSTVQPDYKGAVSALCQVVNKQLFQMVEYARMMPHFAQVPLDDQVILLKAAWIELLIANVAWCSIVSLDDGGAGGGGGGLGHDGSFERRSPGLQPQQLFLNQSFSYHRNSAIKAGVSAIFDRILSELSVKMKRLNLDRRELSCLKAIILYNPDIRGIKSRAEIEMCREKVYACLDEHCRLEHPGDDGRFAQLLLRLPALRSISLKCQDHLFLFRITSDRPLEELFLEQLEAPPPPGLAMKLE
Kind of assay: Competitive 3H-ponasterone A binding assay, Kc cytosolic ecdysone receptor extract. Conditions: for Kc log(1/EC50) / EC50: Kc cells/extract; for Kd: read-out: Kd for Kc cells; for EC50: read-out: Kc log(1/EC50) (converted). As for the experimental part:
The dipteran cell line Kc167, originally derived from Drosophila embryos (see Echalier, G. and Ohanessian, A. (1969) C. R. Acad. Sci., 268, 1771) was obtained from Dr. Peter Cherbas (Indiana University) and maintained as described (Cherbas, L., et. al., (1994), Methods in Cell Biology, 44, 161-179). A 400 ml culture of Kc Cells (3×10^7 cells per ml) was centrifuged at 700×g for 10 minutes at room temperature to pellet the cells. The supernatant was aspirated and the pellet was resuspended in 70 ml of cold TM buffer (10 mM Tris, 5 mM MgCl2, 1 mM DTT, pH 7.2). After a 10 minute incubation on ice, the cells were centrifuged at 2,300×g. The supernatant was discarded. The cell pellet was frozen at −20° C. for 1 hour. The frozen cell pellet was thawed slowly on ice and homogenized in a cold Potter-Elvehjem homogenizer using a teflon pestle on a Caframo homogenizer motor, at setting 500 with 10 up and down strokes at 4° C. This slurry was centrifuged at 100,000×g in a swinging bucket rotor for 60 minutes. The supernatant, containing the cytosolic protein extract was diluted with T buffer (10 mM Tris, 1 mM DTT, pH 7.2) to a protein concentration of 5 mg/ml. This extract was used immediately for ligand binding assays.
^3H ponasterone A, a potent phytoecdysteroid, (66,000 dpm; specific activity 170 Ci/mmole; NEN Life Science Products, Boston, Mass.) was mixed with 100 μl Kc cytosolic or Plodia nuclear ecdysone receptor extracts in […] glass test tubes in the absence or presence of 10 μM unlabelled 20-hydroxyecdysone (20E) to obtain an estimate of total or non-specific respectively, binding of tritiated ponasterone A. The tubes were vortexed and incubated overnight at 4° C. for Kc cytosolic extracts or 1.5 hours for Plodia nuclear extracts for binding reactions to reach equilibrium. At the end of equilibrium binding times, the bound tritiated ponasterone A was separated from the unbound by addition of ice-cold 600 μl or 300 μl dextran-coated charcoal solution (500 mg of Sigma HCL-washed activated charcoal, 50 mg Pharmacia Dextran T70, 50 ml T-buffer) to Kc or Plodia extracts, respectively. The tubes were vortexed briefly and centrifuged at 7,000×g to pellet the charcoal. The supernatant, 600 μl or 300 μl for Kc or Plodia extract reactions, respectively, containing tritiated ponasterone A bound to proteins, was aspirated into liquid scintillation vials containing 5 ml scintillation cocktail (ReadySafe®, Beckmann) each The mixture was vortexed and the amount of total or non-specifically bound radioactivity measured in a Beckmann LS500 liquid scinitllation counter with a 60% counting efficiency for tritium.
The concentrations of competitors that inhibited 50% of tritiated ponasterone A binding (IC50) was determined by incubating Kc or Plodia nuclear extracts or extracts of bacteria producing CfEcR(CDEF)-GST and CfUSP-GST fusions proteins with ^3H-ponasterone A (66,000 dpm per reaction) in the presence of a range of concentrations (0.1 nM to 10 μM) of test compounds. In the case of binding reactions using bacterial fusion proteins, 20 or one μl extract of bacteria producing CfEcR(CDEF)-GST or CfUSP-GST fusion proteins, respectively, were included per binding reaction. The assay conditions and determination of total and non-specific binding was as described above. The volume of competitor in solvent, like that for 20E or solvent alone, was kept at 1% of total reaction volume by using a 100 fold concentrated stock solution (i.e. a 100 fold dilution of stock solutions). The remainder of the assay was as described above. Each reaction was carried out in duplicate per concentration per test compound. Specific binding of ^3H-ponasterone A was determined by subtracting non-specific binding (that obtained in the presence of 10 μM 20E) from total (no competitor) or competed radioactivity bound. The data for each test compound was analyzed using IGOR Pro software (WaveMetrics, Lake Oswego, Oreg.) to calculate IC50 value. […]

Read-outs that look alike come from different tables or passages of the source.

As to `Cc1cc(C)cc(C(=O)N(NC(=O)c2ccc3c(c2C)OCCO3)C(C)(C)C)c1` [Ligand 2], the “Kc log(1/EC50)” value was 7.16. Moreover, the Kd (Table 2) stood at 60 nM. The equilibrium dissociation constant (Kd) (Table 3) was 47 nM.

On to `CCc1c(OC)cccc1C(=O)NN(C(=O)c1cc(C)cc(C)c1)C(C)(C)C` [Ligand 5], for which the “Kc log(1/EC50)” value is listed as 7.70. The Kd (Table 2) amounted to 13.3 nM. For the same compound, for the setting “Table 3”, the Kd was found to be 13 nM.

In the case of `CCc1c(OC)cccc1C(=O)NN(C(=O)c1cc(Cl)cc(Cl)c1)C(C)(C)C` [Ligand 13], the “Kc log(1/EC50)” value stood at 7.44. For the same compound, the Kd (Table 2) stood at 65 nM. Under “Table 3”, the Kd was determined as 24 nM.

Consider `CC(C)(C)N(NC(=O)c1ccccc1)C(=O)c1ccccc1` [CE-2, 1,2-dibenzoyl-1-tert-butyl-hydrazine, reference compound], for which the EC50 is 3020 nM. For the same compound, the equilibrium dissociation constant (Kd) (Table 2) was 2000 nM. The dissociation constant Kd (Table 3) amounted to 2000 nM.

On to `CCc1c(OC)cccc1C(=O)NN(C(=O)c1cc(F)cc(F)c1)C(C)(C)C` [Ligand 4], for which the “Kc log(1/EC50)” value turned out to be 7.41. Besides, the dissociation constant Kd (Table 2) amounted to 47 nM. Moreover, the dissociation constant (Kd) (Table 3) came to 26 nM.

Regarding `CCc1ccc(C(=O)NN(C(=O)c2cc(C)cc(C)c2)C(C)(C)C)cc1` [CE-1, N-(4-ethylbenzoyl)-N′-(3,5-dimethylbenzoyl)-N′-tert-butyl-hydrazine, reference compound], the EC50 was 282 nM. For the same compound, under “Table 2”, the Kd is 110 nM. Besides, the equilibrium dissociation constant (Kd) (Table 3) was 192 nM.

As to `CCOc1cccc(C(=O)NN(C(=O)c2cc(C)cc(C)c2)C(C)(C)C)c1CC` [Ligand 12], the “Kc log(1/EC50)” value came to 8.10. Further, where the note is “Table 2”, the Kd stood at 5.3 nM. The Kd (Table 3) amounted to 5 nM.

Turning to `COc1cccc(C(=O)NN(C(=O)c2cc(C)cc(C)c2)C(C)(C)C)c1C` [Ligand 3], the “Kc log(1/EC50)” value is on record as 6.74. In addition, the Kd (Table 2) stood at 124 nM. Besides, for the setting “Table 3”, the dissociation constant Kd stood at 124 nM.

For the compound `CC(C)CC[C@@H](O)[C@](C)(O)[C@H]1CC[C@@]2(O)C3=CC(=O)[C@]4(O)C[C@@H](O)[C@@H](O)C[C@]4(C)[C@H]3[C@H](O)C[C@]12C` [CE-3, muristerone A, reference compound], the “Kc log(1/EC50)” value turned out to be 7.96. Also, the Kd (Table 2) worked out at 2.3 nM. For the same compound, under “Table 3”, the Kd stood at 2 nM.

On to `CC(C)CC[C@@H](O)[C@](C)(O)[C@H]1CC[C@@]2(O)C3=CC(=O)[C@@H]4C[C@@H](O)[C@@H](O)C[C@]4(C)[C@H]3CC[C@]12C` [CE-4, ponasterone A, reference compound], for which the equilibrium dissociation constant (Kd) reads like this: (Table 2) 0.7 nM; (Table 3) 0.7 nM.

Regarding `CCc1c(OC)cccc1C(=O)NN(C(=O)c1cccc(OC)c1)C(C)(C)C` [Ligand 1], the “Kc log(1/EC50)” value came to 7.36. Moreover, under “Table 2”, the dissociation constant Kd came to 39.5 nM. Besides, for the setting “Table 3”, the dissociation constant Kd amounted to 40 nM.

As a reminder, the Kd is a measure of binding affinity in units of concentration.

For the origin of these results see patent publication US20010044151A1, “Ligands for modulating the expression of exogenous genes via an ecdysone receptor complex” (priority 1998, published 2001).
